According to the NIST ThermoML archive (doi:10.1016/j.jct.2016.03.003):

Assay: mn = molality of the nth substance listed, in mol/kg
Conditions: 101.3 kPa, Liquid, Vibrating tube method

C[C@H](O)C(=O)[O-].C[C@H](O)C(=O)[O-].C[C@H](O)C(=O)[O-].[Al+3] [aluminium L-lactate] + O
Conditions	mass density [kg/m3]
278.15 K, m1 = 0.0016	1000.31
278.15 K, m1 = 0.0033	1000.54
278.15 K, m1 = 0.0065	1000.95
278.15 K, m1 = 0.016	1002.1
278.15 K, m1 = 0.0281	1003.54
278.15 K, m1 = 0.0521	1006.26
278.15 K, m1 = 0.0995	1011.5
278.15 K, m1 = 0.1996	1022.22
278.15 K, m1 = 0.3045	1032.98
278.15 K, m1 = 0.4021	1042.51
278.15 K, m1 = 0.5059	1052.17
278.15 K, m1 = 0.5991	1060.59
278.15 K, m1 = 0.7147	1070.67
283.15 K, m1 = 0.0016	1000.07
283.15 K, m1 = 0.0033	1000.29
283.15 K, m1 = 0.0065	1000.7
283.15 K, m1 = 0.016	1001.82
283.15 K, m1 = 0.0281	1003.24
283.15 K, m1 = 0.0521	1005.92
283.15 K, m1 = 0.0995	1011.1
283.15 K, m1 = 0.1996	1021.72
283.15 K, m1 = 0.3045	1032.35
283.15 K, m1 = 0.4021	1041.79
283.15 K, m1 = 0.5059	1051.34
283.15 K, m1 = 0.5991	1059.68
283.15 K, m1 = 0.7147	1069.65
288.15 K, m1 = 0.0016	999.46
288.15 K, m1 = 0.0033	999.69
288.15 K, m1 = 0.0065	1000.09
288.15 K, m1 = 0.016	1001.21
288.15 K, m1 = 0.0281	1002.6
288.15 K, m1 = 0.0521	1005.25
288.15 K, m1 = 0.0995	1010.37
288.15 K, m1 = 0.1996	1020.89
288.15 K, m1 = 0.3045	1031.43
288.15 K, m1 = 0.4021	1040.77
288.15 K, m1 = 0.5059	1050.24
288.15 K, m1 = 0.5991	1058.5
288.15 K, m1 = 0.7147	1068.38
293.15 K, m1 = 0.0016	998.56
293.15 K, m1 = 0.0033	998.78
293.15 K, m1 = 0.0065	999.18
293.15 K, m1 = 0.016	1000.27
293.15 K, m1 = 0.0281	1001.67
293.15 K, m1 = 0.0521	1004.3
293.15 K, m1 = 0.0995	1009.39
293.15 K, m1 = 0.1996	1019.81
293.15 K, m1 = 0.3045	1030.26
293.15 K, m1 = 0.4021	1039.52
293.15 K, m1 = 0.5059	1048.92
293.15 K, m1 = 0.5991	1057.11
293.15 K, m1 = 0.7147	1066.89
298.15 K, m1 = 0.0016	997.37
298.15 K, m1 = 0.0033	997.6
298.15 K, m1 = 0.0065	997.99
298.15 K, m1 = 0.016	999.09
298.15 K, m1 = 0.0281	1000.46
298.15 K, m1 = 0.0521	1003.09
298.15 K, m1 = 0.0995	1008.13
298.15 K, m1 = 0.1996	1018.48
298.15 K, m1 = 0.3045	1028.85
298.15 K, m1 = 0.4021	1038.07
298.15 K, m1 = 0.5059	1047.37
298.15 K, m1 = 0.5991	1055.51
298.15 K, m1 = 0.7147	1065.25
303.15 K, m1 = 0.0016	996
303.15 K, m1 = 0.0033	996.22
303.15 K, m1 = 0.0065	996.61
303.15 K, m1 = 0.016	997.67
303.15 K, m1 = 0.0281	999.04
303.15 K, m1 = 0.0521	1001.64
303.15 K, m1 = 0.0995	1006.64
303.15 K, m1 = 0.1996	1016.92
303.15 K, m1 = 0.3045	1027.23
303.15 K, m1 = 0.4021	1036.37
303.15 K, m1 = 0.5059	1045.62
303.15 K, m1 = 0.5991	1053.7
303.15 K, m1 = 0.7147	1063.36
308.15 K, m1 = 0.0016	994.37
308.15 K, m1 = 0.0033	994.59
308.15 K, m1 = 0.0065	994.98
308.15 K, m1 = 0.016	996.04
308.15 K, m1 = 0.0281	997.4
308.15 K, m1 = 0.0521	999.99
308.15 K, m1 = 0.0995	1004.96
308.15 K, m1 = 0.1996	1015.17
308.15 K, m1 = 0.3045	1025.41
308.15 K, m1 = 0.4021	1034.51
308.15 K, m1 = 0.5059	1043.7
308.15 K, m1 = 0.5991	1051.73
308.15 K, m1 = 0.7147	1061.35
313.15 K, m1 = 0.0016	992.55
313.15 K, m1 = 0.0033	992.76
313.15 K, m1 = 0.0065	993.14
313.15 K, m1 = 0.016	994.21
313.15 K, m1 = 0.0281	995.56
313.15 K, m1 = 0.0521	998.12
313.15 K, m1 = 0.0995	1003.06
313.15 K, m1 = 0.1996	1013.23
313.15 K, m1 = 0.3045	1023.41
313.15 K, m1 = 0.4021	1032.44
313.15 K, m1 = 0.5059	1041.59
313.15 K, m1 = 0.5991	1049.59
313.15 K, m1 = 0.7147	1059.14
318.15 K, m1 = 0.0016	990.54
318.15 K, m1 = 0.0033	990.75
318.15 K, m1 = 0.0065	991.13
318.15 K, m1 = 0.016	992.2
318.15 K, m1 = 0.0281	993.53
318.15 K, m1 = 0.0521	996.09
318.15 K, m1 = 0.0995	1001
318.15 K, m1 = 0.1996	1011.1
318.15 K, m1 = 0.3045	1021.23
318.15 K, m1 = 0.4021	1030.23
318.15 K, m1 = 0.5059	1039.33
318.15 K, m1 = 0.5991	1047.3
318.15 K, m1 = 0.7147	1056.79
323.15 K, m1 = 0.0016	988.37
323.15 K, m1 = 0.0033	988.56
323.15 K, m1 = 0.0065	988.95
323.15 K, m1 = 0.016	990
323.15 K, m1 = 0.0281	991.34
323.15 K, m1 = 0.0521	993.87
323.15 K, m1 = 0.0995	998.76
323.15 K, m1 = 0.1996	1008.81
323.15 K, m1 = 0.3045	1018.9
323.15 K, m1 = 0.4021	1027.86
323.15 K, m1 = 0.5059	1036.92
323.15 K, m1 = 0.5991	1044.84
323.15 K, m1 = 0.7147	1054.31
328.15 K, m1 = 0.0016	986.02
328.15 K, m1 = 0.0033	986.21
328.15 K, m1 = 0.0065	986.59
328.15 K, m1 = 0.016	987.65
328.15 K, m1 = 0.0281	988.97
328.15 K, m1 = 0.0521	991.49
328.15 K, m1 = 0.0995	996.36
328.15 K, m1 = 0.1996	1006.37
328.15 K, m1 = 0.3045	1016.42
328.15 K, m1 = 0.4021	1025.32
328.15 K, m1 = 0.5059	1034.36
328.15 K, m1 = 0.5991	1042.24
328.15 K, m1 = 0.7147	1051.67
333.15 K, m1 = 0.0016	983.53
333.15 K, m1 = 0.0033	983.72
333.15 K, m1 = 0.0065	984.09
333.15 K, m1 = 0.016	985.14
333.15 K, m1 = 0.0281	986.48
333.15 K, m1 = 0.0521	988.97
333.15 K, m1 = 0.0995	993.82
333.15 K, m1 = 0.1996	1003.79
333.15 K, m1 = 0.3045	1013.8
333.15 K, m1 = 0.4021	1022.68
333.15 K, m1 = 0.5059	1031.67
333.15 K, m1 = 0.5991	1039.53
333.15 K, m1 = 0.7147	1048.93
338.15 K, m1 = 0.0016	980.88
338.15 K, m1 = 0.0033	981.06
338.15 K, m1 = 0.0065	981.45
338.15 K, m1 = 0.016	982.49
338.15 K, m1 = 0.0281	983.81
338.15 K, m1 = 0.0521	986.3
338.15 K, m1 = 0.0995	991.13
338.15 K, m1 = 0.1996	1001.06
338.15 K, m1 = 0.3045	1011.04
338.15 K, m1 = 0.4021	1019.88
338.15 K, m1 = 0.5059	1028.85
338.15 K, m1 = 0.5991	1036.68
338.15 K, m1 = 0.7147	1046.04
343.15 K, m1 = 0.0016	978.11
343.15 K, m1 = 0.0033	978.27
343.15 K, m1 = 0.0065	978.67
343.15 K, m1 = 0.016	979.71
343.15 K, m1 = 0.0281	981.02
343.15 K, m1 = 0.0521	983.51
343.15 K, m1 = 0.0995	988.33
343.15 K, m1 = 0.1996	998.2
343.15 K, m1 = 0.3045	1008.14
343.15 K, m1 = 0.4021	1017.05
343.15 K, m1 = 0.5059	1025.9
343.15 K, m1 = 0.5991	1033.73
343.15 K, m1 = 0.7147	1043.05
